The text below walks through data of patent US20210292741A1, “COMBINATION THERAPEUTICS USING TUMOR TREATING FIELDS (TTFIELDS)” (THE BOARD OF REGENTS OF THE UNIVERSITY OF TEXAS SYSTEM, priority 2020, published 2021).

The subject of the experiment is H1299, A549, H157, and H4006 cells. Kind of experiment: clonogenic survival assay, TTFields combined with E2F and CDK 4/6 inhibitors. The experiment is classed as cell-based, Human. The settings on record: single inhibitor plus TTFields, Highest Single Agent approach.

Experimental: FIGS. 6A-6B provide the results of exemplary clonogenic survival assays in four lung cancer cells lines—H1299, A549, H157, and H4006 cells—under various conditions testing combinations of TTFields with agents that dysregulate E2F signaling or CDK4/6 signaling at 24, 48, and 72 hours. […] Cell survival after increased exposure to TTFields alone, or in combination with a E2F inhibitor, a CDK 4/6 inhibitor or to a combination of E2F inhibitor and CDK 4/6 inhibitor is shown.
Human NSCLC cell lines (H157, H4006, A549, and H1299) were purchased from American Tissue Culture Collection. All these cell lines were grown in RPMI medium supplemented with 10% (v/v) fetal bovine serum (Atlanta Biologicals, Flowery Branch, Ga., USA) and penicillin/streptavidin (final concentration 50 μg/ml; Sigma-Aldrich, St. Louis, Mo., U29SA). All cells were grown at 37° C. in a humidified incubator constantly supplied with 5% CO2.
The inovitro system (NovoCure Ltd, Haifa, Israel) was used to generate TTFields that use two pairs of electrodes printed perpendicularly on the outer walls of a Petri dish composed of high dielectric constant ceramic (lead magnesium niobate-lead titanite (PMN-PT)). […] The temperature was measured by 2 thermistors (Omega Engineering, Stamford, Conn., USA) attached to the ceramic walls. […]

Turning to `CCOc1ccc(C(Nc2ccccn2)c2ccc3ccc(C)nc3c2O)cc1C` (stereo not shown) [HLM006474], the “cell killing in combination with TTFields as compared to TTFields alone” value was “enhanced cell killing synergistically”.
